Consider two compounds from publication PMC6150198, “Functional Characterization of a Hydroxyacid/Alcohol Hydroxycinnamoyl Transferase Produced by the Liverwort Marchantia emarginata” (Molecules : A Journal of Synthetic Chemistry and Natural …, 2017).

The assay deals with T1, MeHFT.
T1 construct: ~71 kDa on gel), E. coli BL21(DE3), Ni-NTA; primers encode N-terminus MGAEEV and C-terminus EEAIKL; cDNA 1413 nt from transcriptome SRP078649
Briefly: HPLC of alkyl ferulate product, UV […] nm, Michaelis-Menten fit. In kind it is biochemical, Marchantia emarginata. The following applies: 0.1 M Tris-HCl pH 7.5, 40 °C, 10 min.

On to `CCCCCCCCCCO` [1-Decanol], for which the Km (acyl acceptor varied, 0.1 mM feruloyl-CoA) turned out to be 65.5 ± 11.2 µM.

With `COc1cc(/C=C/C(=O)SCCNC(=O)CCNC(=O)[C@H](O)C(C)(C)COP(=O)(O)OP(=O)(O)OC[C@H]2O[C@@H](n3cnc4c(N)ncnc43)[C@H](O)[C@@H]2OP(=O)(O)O)ccc1O` [Feruloyl-CoA], the Km (acyl donor varied, 0.1 mM 1-decanol) was determined as 79.4 ± 10.9 µM.
